Results on four compounds are retold here after patent US11278513B2, “Diethylamino compounds for use as local anesthetics” (Zhejiang Yuejia Pharmaceuticals Co., Ltd, priority 2017, dated 2022).

“And” between values parts separate entries of the source, which are not always exact repeats. Equal entries are not always repeated. Where two headings read alike, the source gives them in different places.

For data set [1], the system named is rat dorsal root ganglion (DRG) neurons. Description: Patch clamp inhibition of action potential of acutely isolated rat DRG neurons. It is filed as cell-based. As to conditions: DRG neuron. An excerpt:
In addition, the inventor used acutely isolated rat dorsal root ganglion (DRG) neurons as the experimental object, using patch clamp technology to investigate the inhibition effect of the compound represented by Formula 1 of the present invention on the neuronal excitability of the dorsal root ganglion.
A general note: The patch-clamp technique gives a direct electrical read-out from membranes.

Data set [2] deals with T1, Nav1.8 (Homo sapiens, UniProt Q9Y5Y9).
T1 construct: expressed in transfected cells
Description: Inhibition of Nav1.8 channel current in HEK cells stably expressing Nav1.8. As to conditions: HEK cells stably expressing Nav1.8, channel current. The class given is cell-based.

Data set [3] concerns the target T2, Nav1.7 (Homo sapiens, UniProt Q15858).
T2 construct: expressed in transfected cells
The experiment in a line: Inhibition of Nav1.7 channel current in CHO cells stably expressing Nav1.7. It is filed as cell-based. The conditions noted are these: CHO cells stably expressing Nav1.7, channel current.

Data set [4] is described as follows: Stability of aqueous solution at 2-8° C. (HPLC). It is filed as physicochemical. The conditions noted are these: for Main Drug, %: aqueous solution 5 g in 50 mL sterile water; for Main Drug, % / Salicylic acid, % (impurity) / Salicylic acid-(2-diethylaminoethyl ester) hydrochloride, % (impurity) / Acetylsalicylic acid, % (impurity): 2-8° C.; for Salicylic acid, % (impurity) / Salicylic acid-(2-diethylaminoethyl ester) hydrochloride, % (impurity) / Acetylsalicylic acid, % (impurity): aqueous solution.

The subject of data set [5] is corneal reflex in rabbits. Description: Anesthetic effect on the corneal surface of New Zealand rabbits (corneal reflex inhibition, CRI). The class given is in vivo, New Zealand white rabbits. Here is the method:
New Zealand white rabbits were weighed. […] A single administration of 3 mg/animal (100 μL) was performed on the surface of the eyeball, and the drug concentration was 3% (m/V) in each case (wherein a Tris solution was added to aspirin to facilitate dissolution). Each group included 12 rabbits. […] An equal volume of normal saline was dropped onto the right eyeball as the self-negative control. […] After 30 minutes of administration, it was tested every 15 minutes. After the corneal reflex returned to the pre-dose level, the test was stopped. By comparing the corneal reflex on the administration side and the self-negative control side, the effect of the compound on the corneal reflex after administration was judged. Corneal reflex inhibition (CRI) was used to evaluate the effect of drugs on corneal reflex. CRI was calculated as follows: […]

The nature of data set [6]: Physical and chemical properties (repose angle, solubility, acidity, dissociation constant). The class given is physicochemical.
Data set [7] deals with T1, Nav1.8. As to conditions: reported by a literature; cited from earlier work.
Data set [8] concerns the target T2, Nav1.7. The conditions noted are these: reported by a literature; cited from earlier work.
Where [9] appears, read: 3% (m/V), 100 μL on left eyeball, 0 min, mean ± SD.
Setting [10] is: 3% (m/V), 100 μL on left eyeball, 10 min after administration, mean ± SD.
Where [11] appears, read: 3% (m/V), 100 μL on left eyeball, 15 min after administration, mean ± SD.
[12] abbreviates: 3% (m/V), 100 μL on left eyeball, 20 min after administration, mean ± SD.
[13] abbreviates: 3% (m/V), 100 μL on left eyeball, 25 min after administration, mean ± SD.
Where [14] appears, read: 3% (m/V), 100 μL on left eyeball, 30 min after administration, mean ± SD.
Where [15] appears, read: 3% (m/V), 100 μL on left eyeball, 45 min after administration, mean ± SD.
[16] abbreviates: 3% (m/V), 100 μL on left eyeball, 60 min after administration, mean ± SD.
Where [17] appears, read: ophthalmic administration, 3% (m/V), rabbits.
[18] abbreviates: 3% (m/V), 100 μL on left eyeball, 5 min after administration, mean ± SD.

T2 sequence (Q15858 whole entry): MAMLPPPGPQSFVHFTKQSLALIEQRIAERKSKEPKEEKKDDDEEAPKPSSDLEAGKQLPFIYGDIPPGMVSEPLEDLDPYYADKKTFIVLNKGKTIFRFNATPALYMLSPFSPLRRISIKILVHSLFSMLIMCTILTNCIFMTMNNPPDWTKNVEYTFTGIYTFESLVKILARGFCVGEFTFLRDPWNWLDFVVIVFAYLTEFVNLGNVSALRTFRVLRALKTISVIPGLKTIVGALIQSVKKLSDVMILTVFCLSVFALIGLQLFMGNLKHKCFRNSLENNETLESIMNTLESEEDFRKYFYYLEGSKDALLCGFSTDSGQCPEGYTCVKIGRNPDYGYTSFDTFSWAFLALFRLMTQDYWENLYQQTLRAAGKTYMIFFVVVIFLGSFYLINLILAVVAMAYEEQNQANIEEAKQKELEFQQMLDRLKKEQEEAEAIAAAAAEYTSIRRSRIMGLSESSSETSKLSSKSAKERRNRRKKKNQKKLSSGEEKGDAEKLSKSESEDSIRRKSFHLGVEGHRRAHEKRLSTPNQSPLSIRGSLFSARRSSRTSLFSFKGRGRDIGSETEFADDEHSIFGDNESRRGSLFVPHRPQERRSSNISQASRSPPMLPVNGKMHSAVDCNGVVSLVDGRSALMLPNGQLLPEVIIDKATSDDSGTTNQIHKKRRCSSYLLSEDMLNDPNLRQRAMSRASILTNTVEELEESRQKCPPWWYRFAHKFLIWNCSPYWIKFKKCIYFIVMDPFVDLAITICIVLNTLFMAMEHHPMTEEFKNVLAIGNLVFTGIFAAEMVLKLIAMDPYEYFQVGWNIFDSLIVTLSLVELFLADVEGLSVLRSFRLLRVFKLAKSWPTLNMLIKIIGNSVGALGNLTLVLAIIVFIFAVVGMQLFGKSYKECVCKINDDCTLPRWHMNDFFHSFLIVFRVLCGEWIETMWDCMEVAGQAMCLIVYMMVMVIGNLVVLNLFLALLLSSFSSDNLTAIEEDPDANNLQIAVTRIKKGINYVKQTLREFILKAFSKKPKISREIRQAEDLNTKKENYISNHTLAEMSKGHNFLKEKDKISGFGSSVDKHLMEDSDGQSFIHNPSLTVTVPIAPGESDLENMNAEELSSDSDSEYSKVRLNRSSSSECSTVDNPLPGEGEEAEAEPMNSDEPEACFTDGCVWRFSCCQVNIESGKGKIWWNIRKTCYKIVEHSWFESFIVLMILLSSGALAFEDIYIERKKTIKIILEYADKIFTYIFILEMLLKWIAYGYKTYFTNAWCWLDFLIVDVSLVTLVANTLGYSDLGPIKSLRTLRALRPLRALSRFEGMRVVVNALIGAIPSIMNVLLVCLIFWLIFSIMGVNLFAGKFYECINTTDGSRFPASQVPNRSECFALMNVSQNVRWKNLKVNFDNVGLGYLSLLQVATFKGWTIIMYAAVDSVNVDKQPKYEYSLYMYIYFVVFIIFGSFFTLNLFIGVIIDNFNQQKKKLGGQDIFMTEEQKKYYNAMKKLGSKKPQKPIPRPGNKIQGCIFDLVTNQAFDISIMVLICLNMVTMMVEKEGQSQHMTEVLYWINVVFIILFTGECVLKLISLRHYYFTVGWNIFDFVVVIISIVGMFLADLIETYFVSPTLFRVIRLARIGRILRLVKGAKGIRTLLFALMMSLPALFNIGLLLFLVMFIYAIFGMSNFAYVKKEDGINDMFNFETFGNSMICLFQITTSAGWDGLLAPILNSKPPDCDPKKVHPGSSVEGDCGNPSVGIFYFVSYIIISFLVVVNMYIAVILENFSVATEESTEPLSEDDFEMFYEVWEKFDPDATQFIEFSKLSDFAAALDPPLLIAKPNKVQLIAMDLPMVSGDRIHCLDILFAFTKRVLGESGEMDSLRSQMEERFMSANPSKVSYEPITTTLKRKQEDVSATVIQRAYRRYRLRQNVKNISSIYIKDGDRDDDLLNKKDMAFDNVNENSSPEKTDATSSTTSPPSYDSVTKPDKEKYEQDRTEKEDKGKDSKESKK
T1 sequence (Q9Y5Y9 whole entry): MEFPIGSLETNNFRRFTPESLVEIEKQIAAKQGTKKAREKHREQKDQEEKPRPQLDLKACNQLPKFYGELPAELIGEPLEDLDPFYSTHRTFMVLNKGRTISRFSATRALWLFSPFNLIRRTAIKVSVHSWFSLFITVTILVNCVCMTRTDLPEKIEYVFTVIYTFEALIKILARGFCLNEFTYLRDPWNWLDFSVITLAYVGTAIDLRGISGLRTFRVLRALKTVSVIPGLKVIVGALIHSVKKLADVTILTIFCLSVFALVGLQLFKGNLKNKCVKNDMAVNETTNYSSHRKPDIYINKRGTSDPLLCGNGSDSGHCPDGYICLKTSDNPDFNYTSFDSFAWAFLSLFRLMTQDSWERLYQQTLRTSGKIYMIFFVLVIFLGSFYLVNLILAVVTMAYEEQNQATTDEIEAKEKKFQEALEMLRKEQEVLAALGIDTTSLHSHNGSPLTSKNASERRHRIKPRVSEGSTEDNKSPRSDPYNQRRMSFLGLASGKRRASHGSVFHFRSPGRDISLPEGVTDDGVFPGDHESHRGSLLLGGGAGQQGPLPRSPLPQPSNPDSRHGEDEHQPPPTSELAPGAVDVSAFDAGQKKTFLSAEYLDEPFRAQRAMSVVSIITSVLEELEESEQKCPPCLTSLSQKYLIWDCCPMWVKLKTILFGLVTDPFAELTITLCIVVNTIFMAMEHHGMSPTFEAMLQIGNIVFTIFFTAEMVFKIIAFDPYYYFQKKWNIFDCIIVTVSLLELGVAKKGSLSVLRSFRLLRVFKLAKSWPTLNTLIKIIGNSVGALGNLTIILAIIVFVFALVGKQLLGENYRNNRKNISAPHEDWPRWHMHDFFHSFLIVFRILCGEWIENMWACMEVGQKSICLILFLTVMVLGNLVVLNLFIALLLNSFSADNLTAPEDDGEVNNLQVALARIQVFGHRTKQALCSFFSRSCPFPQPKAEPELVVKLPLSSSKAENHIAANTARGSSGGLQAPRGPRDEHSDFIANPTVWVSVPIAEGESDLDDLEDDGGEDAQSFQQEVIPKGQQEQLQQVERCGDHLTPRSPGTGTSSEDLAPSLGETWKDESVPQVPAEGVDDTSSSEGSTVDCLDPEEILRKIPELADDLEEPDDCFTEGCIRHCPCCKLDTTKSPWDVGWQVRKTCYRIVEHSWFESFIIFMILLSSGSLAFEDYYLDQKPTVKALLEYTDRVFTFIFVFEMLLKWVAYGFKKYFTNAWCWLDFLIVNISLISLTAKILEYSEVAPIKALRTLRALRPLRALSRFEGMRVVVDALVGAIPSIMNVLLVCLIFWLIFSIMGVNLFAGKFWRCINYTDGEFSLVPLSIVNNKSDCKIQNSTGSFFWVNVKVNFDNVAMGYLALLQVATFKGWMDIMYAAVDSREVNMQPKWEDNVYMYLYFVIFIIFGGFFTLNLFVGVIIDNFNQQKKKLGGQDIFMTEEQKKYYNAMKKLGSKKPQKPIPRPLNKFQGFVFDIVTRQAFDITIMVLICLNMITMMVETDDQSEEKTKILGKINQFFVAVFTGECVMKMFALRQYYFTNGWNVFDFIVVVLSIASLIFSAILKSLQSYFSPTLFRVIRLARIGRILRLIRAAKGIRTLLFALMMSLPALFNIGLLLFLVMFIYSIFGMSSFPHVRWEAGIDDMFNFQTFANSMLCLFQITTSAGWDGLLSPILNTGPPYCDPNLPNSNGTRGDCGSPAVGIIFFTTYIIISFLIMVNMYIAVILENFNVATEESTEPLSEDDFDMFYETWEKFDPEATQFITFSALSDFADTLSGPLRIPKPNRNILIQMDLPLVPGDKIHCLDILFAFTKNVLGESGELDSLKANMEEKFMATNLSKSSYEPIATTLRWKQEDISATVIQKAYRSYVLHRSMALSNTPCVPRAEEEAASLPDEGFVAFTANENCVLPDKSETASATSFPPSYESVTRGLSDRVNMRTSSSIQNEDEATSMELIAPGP

Regarding `CCN(CC)CCOC(=O)c1ccccc1OC(C)=O.Cl` [2-(diethylamino)-ethyl-2-acetoxybenzoate hydrochloride], the half-maximal inhibitory concentration (IC50) (usually the point on the concentration scale where inhibition reaches its midpoint) is 34.6 µM in data set [1], 74.6 µM against Nav1.8 [2] and 17.7 µM against Nav1.7 [3]. For the same compound, the “Main Drug, %” value was 99.48% in data set [4] (month 0); 99.32% in data set [4] (month 0.5); 97.59% in data set [4] (month 1); 94.86% in data set [4] (month 2); 86% and 86.55% in data set [4] (month 3, hydrochloride). In addition, the “Salicylic acid, % (impurity)” value is 0.0028% in data set [4] (month 0); 0.0035% in data set [4] (month 0.5); 0.0044% in data set [4] (month 1); 0.012% in data set [4] (month 2); 0.049% in data set [4] (month 3). For the same compound, the “Salicylic acid-(2-diethylaminoethyl ester) hydrochloride, % (impurity)” value in data set [4] (month 0) is reported as 0.51%; in data set [4] (month 0.5) it was 0.67%; in data set [4] (month 1), 2.38%; in data set [4] (month 2), 5.09%. Also, the “Acetylsalicylic acid, % (impurity)” value is 0.018% in data set [4] (month 1), 0.033% in data set [4] (month 2) and 0.042% in data set [4] (month 3). Moreover, in data set [4] (solution state), the “stability in solution (in words)” value was “did not meet the general requirements for chemical drug stability”. Moreover, the “CRI (%)” value is listed as 0.0 ± 0.0% in data set [5] (setting [9]); 99.1 ± 2.0% in data set [5] (3% (m/V), 100 μL on left eyeball, 5 min after administration; mean ± SD; hydrochloride)); 97.2 ± 2.9% in data set [5] (setting [10]); 96.7 ± 6.5% in data set [5] (setting [11]); 86.7 ± 9.8% in data set [5] (setting [12]); 77.5 ± 2.9% in data set [5] (setting [13]). The “CRI (%)” value is on record as 57.5 ± 12.2% in data set [5] (setting [14]), 12.2 ± 12.4% in data set [5] (setting [15]) and 0.0 ± 0.0% in data set [5] (setting [16]). In data set [5] (setting [17]), the “local anesthetic effect (in words)” value is reported as “had a local anesthesia effect for ophthalmic administration, with quick onset”. Moreover, the Dissociation constant in data set [6] is 8.82. In data set [6], this compound had a Repose angle of 42°. Further, the “Acidity: pH value of the 2% aqueous solution” value in data set [6] (2% aqueous solution at 25 ± 0.5° C.) is “product at 25 ± 0.5 °C is 4.0-6.0”. Further, in data set [6] (acetone), the Solubility in acetone result is “slightly soluble”. Also, the Solubility in ether result in data set [6] (ether) was “insoluble”. In data set [6] (ethyl acetate), the “Solubility in ethyl acetate” value was “insoluble”. Also, the Solubility in water entry in data set [6] (water) is listed as “extremely soluble”.

In the case of `CC(=O)Oc1ccccc1C(=O)O` [Aspirin, aspirin], the “CRI (%)” value in data set [5] (setting [9]), in data set [5] (setting [18]), in data set [5] (setting [10]), in data set [5] (setting [11]), in data set [5] (setting [12]) and in data set [5] (setting [13]) was 0.0 ± 0.0% in each case. Also, the “CRI (%)” value came out at 0.0 ± 0.0% in data set [5] (setting [14]), 0.0 ± 0.0% in data set [5] (setting [15]), 0.0 ± 0.0% in data set [5] (setting [16]) and 0.0±0.0% in data set [5] (no time point stated). Besides, the “local anesthetic effect (in words)” value in data set [5] (setting [17]) is given as “no local anesthetic effect at all”.

For the compound `CCN(CC)CC(=O)Nc1c(C)cccc1C` [Lidocaine, lidocaine], the figures for the IC50 (in data set [1]; at Nav1.8 [7]; at Nav1.7 [8]) were 37.1 µM, 104 µM and 450 µM, respectively. The “CRI (%)” value in data set [5] (setting [9]) is listed as 0.0 ± 0.0%; in data set [5] (setting [18]), 98.3 ± 3.9%; in data set [5] (setting [10]), 95.0 ± 10.0%; in data set [5] (setting [11]), 91.7 ± 15.3%; in data set [5] (setting [12]) it was 86.7 ± 21.0%; in data set [5] (setting [13]) it was 82.5 ± 27.3%. For the same compound, the “CRI (%)” value was found to be 70.0 ± 27.3% in data set [5] (setting [14]), 32.5 ± 30.5% in data set [5] (setting [15]) and 0.0 ± 0.0% in data set [5] (setting [16]).

On to `O=C([O-])c1ccccc1O.[Na+]` [Sodium salicylate, sodium salicylate], for which, in data set [5] (rabbit, in vivo), the “CRI (%)” value was 0.0±0.0% and the “local anesthetic effect (in words)” value is “no local anesthetic effect at all”.
